Data from patent publication US20240315993A1, “ANTIPARASITIC COMPOUNDS” (Intervet Inc., priority 2021, published 2024).

Tested on: Lepeophtheirus salmonis
Experiment: Salmon - in vivo efficacy against sea lice using in-feed administration
Details: for prophylactic efficacy against re-infestation: 1 mg/kg in feed for 7 days
Method: Commercial fish feed pellets were coated with formulated test compound. As formulation DMSO 5%/fish oil 95% was used. Salmon (Salmo solar) were treated orally with 1 mg/kg fish biomass via coated feed for 7 consecutive days. Salmon of the negative control groups received only feed coated with the excipients of the formulation.
Fish of the therapeutic groups were infested with Lepeophtheirus salmonis copepodids twice before treatment (around day −28 and day −3).
Fish of the prophylactic groups were infested at several time points after treatment in 2-week intervals. The fish were assessed for (pre-)adult sea lice approximately 3 weeks after each re-infestation. At each assessment, all (pre-)adult sea lice were removed from the fish. […] Efficacy is expressed as a % reduction of sea lice in treated groups versus a control group using the Abbott's formula.

[1] = 1 mg/kg fish biomass via coated feed for 7 consecutive days

SMILES: O=C(Nc1ncc(F)cc1F)c1cc(NC(=O)[C@H]2[C@H](c3cc(Cl)cc(Cl)c3)C2(Cl)Cl)ccc1Cl [Compound 453]
- therapeutic efficacy against (pre-)adult sea lice [1]: 100%
- therapeutic efficacy against juvenile sea lice [1]: 100%
- prophylactic efficacy against re-infestation (re-infestation D14): 100%
- prophylactic efficacy against re-infestation (re-infestation D28): 99.9%
- prophylactic efficacy against re-infestation (re-infestation D42): 86.0%
